Reference: patent US8188148B2, “Substituted 1,3-diphenylpropane derivatives, preparations and uses thereof” (Genfit, priority 2006, dated 2012)

Legend:
ApoE2/E2 mouse = experiment: In vivo evaluation on ApoE2/E2 mouse: body weight and plasma lipids; conditions: E2/E2 mouse, 5, 10, and 50 mpk per os, 8 days, vs control
Protocol: The dyslipidemic E2/E2 mouse's body weight, rates of total cholesterol, triglycerides and of plasma free fatty acids are measured after 8 days of a per os treatment with the compounds according to the invention.
The murine model used is the ApoE2/E2 mouse, a transgenic mouse having the human apolipoprotein E isoform E2 (Sullivan P M et al., 1998). In human, this apolipoprotein, a constituent of low and very low density lipoproteins (LDL-VLDL), is present in three isoforms E2, E3, and E4. The E2 form presents a mutation affecting the amino acid of position 158, which considerably weakens the affinity of this protein for the receptors to LDL receptors. Accordingly, the VLDL clearance is nearly non-existent. An accumulation of low-density lipoproteins then occurs along with a mixed hyperlipidemia known as of type III (high cholesterol and triglycerides rates).
The ApoE2/E2 transgenic mice were kept on a 12 hour/12 hour light/dark cycle at a constant temperature of 20±3° C. After a one week acclimatization period, the mice were weighed and divided into groups of 6 animals selected so as to render uniform the distribution of their body weights and plasma lipid rates, determined before the experiment. The tested compounds were suspended in carboxymethylcellulose (Sigma C4888) and administered by intra-gastric tube feeding, once a day for 8 days at the chosen dosage. The animals had free access to food and water (standard diet). Taking of food and weight gain are recorded throughout the experiment. At the end of the experiment, the animals were anesthetized after a 4 hour fast, a blood sample was taken using (EDTA) anticoagulant, then the mice were weighed and euthanized. The plasma was prepared by centrifugation at 3000 rotations/minute for 20 minutes. The samples were kept at +4° C.
Plasma lipid concentrations (total cholesterol and triglycerides) are measured by enzymatic dosages (bioMérieux-Lyon-France) according to the provider's recommendations.
Plasma cholesterol and triglycerides rates are measured after 8 days of a per os treatment with the compounds according to the invention. These rates are compared with those obtained with control animals (not treated with compounds according to the invention).
Low-density lipoproteins (VLDL and LDL) are precipitated by Phosphotungstate. The precipitate is eliminated by centrifugation. HDL cholesterol present in the supernatant is measured by enzymatic dosages (bioMérieux-Lyon-France) in accordance with the provider's recommendations.

[1] = test system: PPARs target genes (PDK4, ApoCIII); experiment: Hepatic gene expression by quantitative RT-PCR in E2/E2 mouse; format: in vivo; conditions: E2/E2 mouse, 5, 10, and 50 mpk, 8 days, normalized to 36B4
Protocol: The effectiveness of the compounds according to the invention is also evaluated by measuring, in the hepatic tissue, the expression of genes involved in lipid and/or glucid metabolism and in energy dissipation. Each level of gene expression is normalized regarding the expression level of the reference gene 36B4. The induction factor, i.e. the ratio between the relative signal (induced by the compound according to the invention) and the average of the relative values obtained with the control group, is then calculated. The higher the induction factor is, the more the compound promotes hepatic gene expression. […]
The agonist properties of PPARα previously measured in vitro should, in the liver, lead to an over-expression of the target genes directly under the control of the PPARα. […]
Gene expression analysis by quantitative RT-PCR Total RNA is extracted from liver fragments by using a NucleoSpin® 96 RNA kit (Macherey Nagel, Hoerdt, France) according to the manufacturer's instructions.
1 μg of total RNA (quantified by using the Ribogreen RNA quantification kit (Molecular Probes)) is then reverse-transcribed into complementary DNA by means of a 1 hour reaction at 37° C. in a total volume of 20 μl containing a 1× buffer (Sigma), 1.5 mM of DTT, 0.18 mM of dNTPs (Promega), 200 ng of pdN6 (Amersham), 30 U of RNase inhibitor (Sigma), and 1 μl of MMLV-RT (Sigma). […]

Cc1cc(CCC(=O)c2ccc(OC(F)(F)F)cc2)cc(C)c1OC(C)(C)C(=O)O [Compound 1, 2-[2,6-dimethyl-4-[3-[4-(trifluoromethyloxy)phenyl]-3-oxo-propyl]phenoxy]-2-methyl-propanoic acid]
body weight gain (ApoE2/E2 mouse): weight loss
plasma HDL-cholesterol (ApoE2/E2 mouse): significantly increased
plasma free fatty acids (ApoE2/E2 mouse): decreased very significantly
plasma total cholesterol (ApoE2/E2 mouse): significantly reduced
plasma triglycerides (ApoE2/E2 mouse): decreased very significantly
hepatic expression of the gene coding for ApoCIII [1]: reduction
hepatic expression of the gene coding for PDK4 [1]: significant increase
